Values quoted from earlier work as cited in patent US12409239B2, “Particles for use in hyperpolarization” (BEACON MRI LTD, priority 2021, dated 2025).

Conditions: background statement

Q: Which T1 does the source give for `CC(=O)C(=O)O` [pyruvate/pyruvic acid, pyruvic acid] here?
A: about a minute
